Measured values published in US20240309014A1, “MACROCYCLIC COMPOUNDS AND USES THEREOF” (President and Fellows of Harvard College, priority 2017, published 2024).

Assays:
[1] = system: OSC-19 subcutaneous xenograft; assay: Antitumor activity against OSC-19 subcutaneous xenograft as monotherapy; assay type: in vivo, nude mice; conditions: Q7Dx2
Experimental: A human squamous cell carcinoma of the head and neck (SCCHN) cell line OSC-19, which had been cultured in an DMEM/Ham's F-12 (1:1) medium containing 10% FBS, and penicillin and streptomycin, was adjusted to a concentration of 1×10^8 cells/ml with PBS to prepare a cell suspension, and the suspension was mixed with Matrigel™ (BD Bioscience, #366237) in a ratio of 1:1 to prepare a cell suspension in a concentration of 5×10^7 cell/mL. The cell suspension was inoculated in a volume of 100 μL into a subcutaneous part of a right flank of nude mice, 5 weeks of ages (CAnN.Cg-Foxnlnu/CrlCrlj, female, Charles River Laboratories Japan, Inc.). Six days after cell inoculation, the shortest diameter and the longest diameter of a tumor in each mouse were measured by using an electronic digital caliper (Digimatic™ caliper, Mitutoyo Corporation), so as to calculate the volume of the tumor in accordance with the following calculation formulae: […]
On the basis of the volumes of tumors obtained on the first day of administration, the mice were grouped such that averages of the tumor volumes were substantially equal among the groups. The experiment was conducted on groups each consisting of 6 mice. Test compound was dissolved in saline and intravenously administered at doses from 0.06 mg/kg to 0.18 mg/kg once a week for 2 weeks (Q7Dx2 schedule).

[2] = system: OE21, OE33, TE-8, MES-SA, MES-SA/Dx5-RX1 cell lines; assay: In vitro antiproliferative activity, esophageal and uterine cancer cell panel (FIG. 11); assay type: cell-based, human; conditions: 72 hours, CellTiter-Glo; values only in FIG. 11
Experimental: The in vitro antiproliferative assays for Compound (1) were conducted using a small panel of cancer cell lines including human squamous cell carcinoma of the esophagus (OE21, TE-8), human […] of the esophagus (OE33), and human uterine sarcoma (MES-SA, MES-SA-Dx5-R^X1). All cell lines were cultured in RPMI-1640 medium containing 10% FBS, and penicillin-streptomycin (culture medium), in a 5% CO2 incubator (37° C.). To each well of a 96 well plate (Becton, Dickinson and Company, 353219), 75 μL of cell suspension adjusted to a concentration of 4×10^4 cells/mL with the culture medium was added, and the cells were incubated overnight in a 5% CO2 incubator (37° C.). On the next day, 25 μL of Compound (1) in three-fold dilution series suspended in the culture medium was added to each well, and the resultant was incubated for 72 hours in a 5% CO2 incubator (37° C.). Then, cell viability was determined by CellTiter-Glo® Luminescent Cell Viability Assay (Promega) with 2013 EnVision™ Multilabel Reader (Perkin-Elmer, Wellesley, MA). Value of the wells containing cells without adding the test compounds was defined as 100% and the value of the wells containing no cells was defined as 0%. […] The P-gp susceptibility was calculated as the ratio of the IC50 value in MES-SA-Dx5-R^X1 cells, which overexpress P-gp, to the IC50 value in MES-SA cells.

[3] = system: murine undifferentiated colon carcinoma cell line CT26; assay: CT26 subcutaneous syngeneic model in combination with anti-mPD-1 antibody; assay type: in vivo, BALB/c mice
Experimental: A murine undifferentiated colon carcinoma cell line CT26, which had been cultured in an RPMI-1640 medium containing 10% FBS, and penicillin and streptomycin, was adjusted to a concentration of 2×10^7 cells/mL with Hank's Balanced Salt Solution to prepare a cell suspension. On day 1, the cell suspension was inoculated in a volume of 100 μL into a subcutaneous part of a right flank of BALB/c mice, 6 weeks of ages (BALB/cAnNCrlCrlj, female, Charles River Laboratories Japan, Inc.). Two days after the cell inoculation, the mice were randomly divided into four groups and each group consists of 8 mice. The shortest diameter and the longest diameter of a tumor in each mouse were measured by using an electronic digital caliper (Digimatic™ caliper, Mitutoyo Corporation), so as to calculate the volume of the tumor in accordance with the following calculation formula: […]
The test compound was intravenously administered at 0.09 mg/kg on days 3 and 11. Anti-mPD-1 antibody (BE0146, Bio X Cell) was intravenously administered at 10 mg/kg on days 3, 7, 11, and 15.

[4] = system: human fibrosarcoma cell line HT-1080 xenograft; assay: HT-1080 xenograft as monotherapy (FIG. 17); assay type: in vivo, athymic mice; conditions: 180 μg/kg i.v. Day 1 and Day 8
Experimental: A human fibrosarcoma cell line HT-1080, which had been cultured in an E-MEM containing 10% FBS, NEAA and antibiotics was adjusted to a concentration of 3×10^7 cells/mL with medium to prepare a cell suspension. The cell suspension was inoculated in a volume of 100 μL into a subcutaneous part of a right flank of athymic mice (CAnN.Cg-Foxnlnu/CrlCrlj, female, 6 weeks old, Charles River Japan Inc.). Six days after cell inoculation (Day 1), the length and the width of a tumor in each mouse were measured by using an electronic digital caliper (Mitutoyo Corporation), so as to calculate the volume of the tumor in accordance with the following calculation formula: […]
On the basis of TV, the mice were randomly grouped (Day 1). Each group was consisted in six mice. Compound (1) was dissolved in DMSO and a solution was stored in the freezer before use. Compound (1) (180 μg/kg) was diluted with saline and intravenously injected on Day 1 and Day 8.

[5] = system: human endometrial cancer cell line AN3CA xenograft; assay: AN3CA endometrial cancer xenograft as monotherapy (FIG. 18); assay type: in vivo, nude mice; conditions: 180 μg/kg i.v. Day 1 and Day 8
Experimental: A human endometrial cancer cell line AN3CA, which had been cultured in an E-MEM containing 10% FBS, and penicillin-streptomycin, was adjusted to a concentration of 1.4×10^8 cells/mL with Hanks' Balanced Salt Solution to prepare a cell suspension, and the suspension was mixed with Geltrex® (Thermo Fisher Scientific Inc., #A1413202) in a ratio of 1:1 to prepare a cell suspension in a concentration of 7×10^7 cells/mL. The cell suspension was inoculated in a volume of 100 μL into a subcutaneous part of a right flank of nude mice, 6 weeks of ages (CAnN.Cg-Foxnlnu/CrlCrlj, female, Charles River Laboratories Japan Inc.). Twelve days after cell inoculation (Day 1), the shortest diameter and the longest diameter of a tumor in each mouse were measured by using an electronic digital caliper (Digimatic™ caliper, Mitutoyo Corporation), so as to calculate the volume of the tumor in accordance with the following calculation formulae: […]
On the basis of the volumes of tumors obtained on Day 1, the mice were grouped such that averages of the tumor volumes were substantially equal among the groups. The experiment was conducted on groups each consisting of five mice. The test compound was dissolved in DMSO and a solution was stored in the freezer before use. Immediately before the administration, the stock solution was diluted with saline. […]

In the case of `C=C1C[C@@H]2CC[C@@]34C[C@H]5O[C@H]6[C@@H](O3)[C@H]3O[C@H](CC[C@@H]3O[C@H]6C5O4)CC(=O)O[C@@H]3[C@@H](C)[C@@H]4O[C@@H]5C[C@]6(C[C@@H]7O[C@]8(C[C@H](C)[C@@H]9O[C@H](CN)[C@H](O)C[C@@H]9O8)C[C@H](C)[C@@H]7O6)O[C@@H]5C[C@@H]4O[C@H]3C[C@H]3O[C@@H](CC[C@@H]1O2)C[C@@H](C)C3=C` (stereo in doubt) [Compound (1)], the “Tumor Regression (%)” value ([1]; 0.06 mg/kg i.v.) is reported as 59%, the “Tumor Regression (%)” value ([1]; 0.18 mg/kg i.v.) is reported as 90% and the antiproliferative activity [2] is reported as “potent antiproliferative agent”. For the same compound, the “Inhibition of tumor growth on day 15 (%)” value ([3]; 0.09 mg/kg i.v. days 3 and 11 + anti-mPD-1 antibody 10 mg/kg) was 62%, the “Inhibition of tumor growth on day 15 (%)” value ([3]; single agent: anti-mPD-1 antibody 10 mg/kg or Compound (1) 0.09 mg/kg) was 30% and the antitumor activity [4] was “tumor regression”. The antitumor activity [5] was “tumor regression”.
